Measured values: patent US20160122320A1, “USEFUL COMBINATIONS OF MONOBACTAM ANTIBIOTICS WITH BETA-LACTAMASE INHIBITORS” (Basilea Pharmaceutica AG, priority 2005, published 2016)
Structures can show the parent of a compound that is named as a salt.

What was measured:
Assay in all cases: MIC, NCCLS broth microdilution
Type in all cases: cell-based
Serratia marcescens S6 = conditions: for MIC of antibiotic: antibiotic alone, no inhibitor; for MIC of antibiotic at fixed inhibitor concentration (4 mg/L): MIC of antibiotic compound 1 with the labelled bridged monobactam of formula II and clavulanate, 4 mg/L each
[1] = system: Pseudomonas aeruginosa 1973E; conditions: for MIC of antibiotic: antibiotic alone, no inhibitor; for MIC of antibiotic at fixed inhibitor concentration (4 mg/L): MIC of antibiotic compound 1 with the labelled bridged monobactam of formula II and clavulanate, 4 mg/L each
Summary of the method: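 NCCLS M7-A5 microdilution; DMSO ≤1% final; overnight, 30° C. or 37° C.; visual read. MIC = lowest conc. with no visible growth. Combos: formula I titrated, partners fixed at 4 μg/mL each.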

Acinetobacter sp. J2 = conditions: for MIC of antibiotic / MIC of antibiotic at fixed inhibitor concentration of 4 mg/L: Acinetobacter baumannii J2; for MIC of antibiotic: antibiotic alone, no inhibitor; for MIC of antibiotic at fixed inhibitor concentration (4 mg/L): Acinetobacter sp. J2, MIC of antibiotic compound 1 with the labelled bridged monobactam of formula II and clavulanate, 4 mg/L each
Enterobacter cloacae P99 = conditions: for MIC of antibiotic: antibiotic alone, no inhibitor; for MIC of antibiotic at fixed inhibitor concentration (4 mg/L): MIC of antibiotic compound 1 with the labelled bridged monobactam of formula II and clavulanate, 4 mg/L each
[2] = system: Stenotrophomonas malthophilia 1AC736; conditions: for MIC of antibiotic / MIC of antibiotic at fixed inhibitor concentration of 4 mg/L: Stenotrophomonas maltophilia 1AC736; for MIC of antibiotic: antibiotic alone, no inhibitor; for MIC of antibiotic at fixed inhibitor concentration (4 mg/L): Stenotrophomonas malthophilia 1AC736, MIC of antibiotic compound 1 with the labelled bridged monobactam of formula II and clavulanate, 4 mg/L each
[3] = system: Pseudomonas aeruginosa MK1184; conditions: for MIC of antibiotic: antibiotic alone, no inhibitor; for MIC of antibiotic at fixed inhibitor concentration (4 mg/L): MIC of antibiotic compound 1 with the labelled bridged monobactam of formula II and clavulanate, 4 mg/L each
[4] = system: Klebsiella pneumoniae CF104; conditions: for MIC of antibiotic: antibiotic alone, no inhibitor; for MIC of antibiotic at fixed inhibitor concentration (4 mg/L): MIC of antibiotic compound 1 with the labelled bridged monobactam of formula II and clavulanate, 4 mg/L each

Compound	MIC of antibiotic (Serratia marcescens S6) [µg/mL]	MIC of antibiotic [1] [µg/mL]	MIC of antibiotic (Acinetobacter sp. J2) [µg/mL]	MIC of antibiotic (Enterobacter cloacae P99) [µg/mL]	MIC of antibiotic [2] [µg/mL]	MIC of antibiotic [3] [µg/mL]	MIC of antibiotic [4] [µg/mL]	MIC of antibiotic at fixed inhibitor concentration (4 mg/L) (Serratia marcescens S6) [µg/mL]	MIC of antibiotic at fixed inhibitor concentration (4 mg/L) [1] [µg/mL]	MIC of antibiotic at fixed inhibitor concentration (4 mg/L) (Acinetobacter sp. J2) [µg/mL]	MIC of antibiotic at fixed inhibitor concentration (4 mg/L) (Enterobacter cloacae P99) [µg/mL]	MIC of antibiotic at fixed inhibitor concentration (4 mg/L) [2] [µg/mL]	MIC of antibiotic at fixed inhibitor concentration (4 mg/L) [3] [µg/mL]	MIC of antibiotic at fixed inhibitor concentration (4 mg/L) [4] [µg/mL]	further results
NC(=O)OC[C@@H]1[C@H](NC(=O)/C(=N\OCc2cc(=O)c(O)cn2O)c2nsc(N)n2)C(=O)N1OS(=O)(=O)O [Compound 48, ((2S,3S)-3-{(2Z)-2-(5-amino(1,2,4-thiadiazol-3-yl))-3-[(1,5-dihydroxy-4-oxo(2-hydropyridyl))methoxy]-3-azaprop-2-enoylamino}-1-(hydroxysulfonyloxy)-4-oxoazetidin-2-yl)methyl aminooate]	8	8	>32	>32	4	4	>32								MIC of antibiotic at fixed inhibitor concentration of 4 mg/L (Serratia marcescens S6; with 102 and clavulanate): 2 µg/mL; MIC of antibiotic at fixed inhibitor concentration of 4 mg/L (Serratia marcescens S6; with 324 and clavulanate): 2 µg/mL; MIC of antibiotic at fixed inhibitor concentration of 4 mg/L ([1]; with 102 and clavulanate): 4 µg/mL; MIC of antibiotic at fixed inhibitor concentration of 4 mg/L ([1]; with 324 and clavulanate): 8 µg/mL; MIC of antibiotic at fixed inhibitor concentration of 4 mg/L (Acinetobacter sp. J2; with 102 and clavulanate): >32 µg/mL; MIC of antibiotic at fixed inhibitor concentration of 4 mg/L (Acinetobacter sp. J2; with 324 and clavulanate): >32 µg/mL; MIC of antibiotic at fixed inhibitor concentration of 4 mg/L (Enterobacter cloacae P99; with 102 and clavulanate): 32 µg/mL; MIC of antibiotic at fixed inhibitor concentration of 4 mg/L (Enterobacter cloacae P99; with 324 and clavulanate): 16 µg/mL; MIC of antibiotic at fixed inhibitor concentration of 4 mg/L ([2]; with 102 and clavulanate): 4 µg/mL; MIC of antibiotic at fixed inhibitor concentration of 4 mg/L ([2]; with 324 and clavulanate): 2 µg/mL; MIC of antibiotic at fixed inhibitor concentration of 4 mg/L ([3]; with 102 and clavulanate): 2 µg/mL; MIC of antibiotic at fixed inhibitor concentration of 4 mg/L ([3]; with 324 and clavulanate): 2 µg/mL; MIC of antibiotic at fixed inhibitor concentration of 4 mg/L ([4]; with 102 and clavulanate): 2 µg/mL; MIC of antibiotic at fixed inhibitor concentration of 4 mg/L ([4]; with 324 and clavulanate): 4 µg/mL
C[C@H](ON1C(=O)[C@@H](NC(=O)/C(=N\OCc2cc(=O)c(O)cn2O)c2csc(N)n2)[C@@H]1C)C(=O)O [Compound 23, (2S)-2-((3S,4S)-3-{(2Z)-2-(2-amino(1,3-thiazol-4-yl))-3-[(1,5-dihydroxy-4-oxo(2-hydropyridyl))methoxy]-3-azaprop-2enoylamino}-4-methyl-2-oxoazetidinyloxy)propanoic acid]	0.25	8	16	>32	1	8	>32								MIC of antibiotic at fixed inhibitor concentration of 4 mg/L (Serratia marcescens S6; with 102 and clavulanate): 0.25 µg/mL; MIC of antibiotic at fixed inhibitor concentration of 4 mg/L (Serratia marcescens S6; with 324 and clavulanate): 0.25 µg/mL; MIC of antibiotic at fixed inhibitor concentration of 4 mg/L (Serratia marcescens S6; with 324 and sulbactam): 0.5 µg/mL; MIC of antibiotic at fixed inhibitor concentration of 4 mg/L ([1]; with 102 and clavulanate): 8 µg/mL; MIC of antibiotic at fixed inhibitor concentration of 4 mg/L ([1]; with 324 and clavulanate): 16 µg/mL; MIC of antibiotic at fixed inhibitor concentration of 4 mg/L ([1]; with 324 and sulbactam): 16 µg/mL; MIC of antibiotic at fixed inhibitor concentration of 4 mg/L (Acinetobacter sp. J2; with 102 and clavulanate): 8 µg/mL; MIC of antibiotic at fixed inhibitor concentration of 4 mg/L (Acinetobacter sp. J2; with 324 and clavulanate): 8 µg/mL; MIC of antibiotic at fixed inhibitor concentration of 4 mg/L (Acinetobacter sp. J2; with 324 and sulbactam): 2 µg/mL; MIC of antibiotic at fixed inhibitor concentration of 4 mg/L (Enterobacter cloacae P99; with 102 and clavulanate): 8 µg/mL; MIC of antibiotic at fixed inhibitor concentration of 4 mg/L (Enterobacter cloacae P99; with 324 and clavulanate): 4 µg/mL; MIC of antibiotic at fixed inhibitor concentration of 4 mg/L (Enterobacter cloacae P99; with 324 and sulbactam): 8 µg/mL; MIC of antibiotic at fixed inhibitor concentration of 4 mg/L ([3]; with 102 and clavulanate): 8 µg/mL; MIC of antibiotic at fixed inhibitor concentration of 4 mg/L ([3]; with 324 and clavulanate): 8 µg/mL; MIC of antibiotic at fixed inhibitor concentration of 4 mg/L ([3]; with 324 and sulbactam): 8 µg/mL; MIC of antibiotic at fixed inhibitor concentration of 4 mg/L ([4]; with 102 and clavulanate): 1 µg/mL; MIC of antibiotic at fixed inhibitor concentration of 4 mg/L ([4]; with 324 and clavulanate): 1 µg/mL; MIC of antibiotic at fixed inhibitor concentration of 4 mg/L ([4]; with 324 and sulbactam): 2 µg/mL
CC1C(NC(=O)C(=NOCc2cc(=O)c(O)cn2O)c2csc(NC=O)n2)C(=O)N1S(=O)(=O)O (stereo not drawn) [Compound 28]	8	>32	>32	>32	8	>32	>32								MIC of antibiotic at fixed inhibitor concentration of 4 mg/L (Serratia marcescens S6; with 102 and clavulanate): 1 µg/mL; MIC of antibiotic at fixed inhibitor concentration of 4 mg/L ([1]; with 102 and clavulanate): 16 µg/mL; MIC of antibiotic at fixed inhibitor concentration of 4 mg/L (Acinetobacter sp. J2; with 102 and clavulanate): >32 µg/mL; MIC of antibiotic at fixed inhibitor concentration of 4 mg/L (Enterobacter cloacae P99; with 102 and clavulanate): >32 µg/mL; MIC of antibiotic at fixed inhibitor concentration of 4 mg/L ([2]; with 102 and clavulanate): 1 µg/mL; MIC of antibiotic at fixed inhibitor concentration of 4 mg/L ([3]; with 102 and clavulanate): 32 µg/mL; MIC of antibiotic at fixed inhibitor concentration of 4 mg/L ([4]; with 102 and clavulanate): 0.5 µg/mL
O=C(C[n+]1ccccc1)Nc1ccc(SCC(=O)N2CC[C@@H]3[C@H]2C(=O)N3S(=O)(=O)[O-])cc1 [Compound 204, (1S,5R)-7-oxo-2-{2-[4-(2-pyridiniumacetylamino)phenylthio]acetyl}-2,6-diazabicyclo[3.2.0]heptane-6-sulfonate, inner salt]								0.25	4	2	8	8	32	2	
CC1C(NC(=O)C(=NOCc2cc(=O)c(O)cn2O)c2nsc(N)n2)C(=O)N1S(=O)(=O)O (stereo not drawn) [Compound 2]	>32	8	4	>32	4	8	>32								MIC of antibiotic at fixed inhibitor concentration of 4 mg/L (Serratia marcescens S6; with 206 and clavulanate): >32 µg/mL; MIC of antibiotic at fixed inhibitor concentration of 4 mg/L ([1]; with 206 and clavulanate): 8 µg/mL; MIC of antibiotic at fixed inhibitor concentration of 4 mg/L (Acinetobacter sp. J2; with 206 and clavulanate): 16 µg/mL; MIC of antibiotic at fixed inhibitor concentration of 4 mg/L (Enterobacter cloacae P99; with 206 and clavulanate): 16 µg/mL; MIC of antibiotic at fixed inhibitor concentration of 4 mg/L ([2]; with 206 and clavulanate): 0.5 µg/mL; MIC of antibiotic at fixed inhibitor concentration of 4 mg/L ([3]; with 206 and clavulanate): 16 µg/mL; MIC of antibiotic at fixed inhibitor concentration of 4 mg/L ([4]; with 206 and clavulanate): 8 µg/mL

More lines, main results first:

MIC of antibiotic (Serratia marcescens S6) [µg/mL]	MIC of antibiotic [1] [µg/mL]	MIC of antibiotic (Acinetobacter sp. J2) [µg/mL]	MIC of antibiotic (Enterobacter cloacae P99) [µg/mL]	MIC of antibiotic [2] [µg/mL]	MIC of antibiotic [3] [µg/mL]	MIC of antibiotic [4] [µg/mL]	MIC of antibiotic at fixed inhibitor concentration (4 mg/L) (Serratia marcescens S6) [µg/mL]	MIC of antibiotic at fixed inhibitor concentration (4 mg/L) [1] [µg/mL]	MIC of antibiotic at fixed inhibitor concentration (4 mg/L) (Acinetobacter sp. J2) [µg/mL]	MIC of antibiotic at fixed inhibitor concentration (4 mg/L) (Enterobacter cloacae P99) [µg/mL]	MIC of antibiotic at fixed inhibitor concentration (4 mg/L) [2] [µg/mL]	MIC of antibiotic at fixed inhibitor concentration (4 mg/L) [3] [µg/mL]	MIC of antibiotic at fixed inhibitor concentration (4 mg/L) [4] [µg/mL]	Compound	further results
							0.25	8	32	32	0.125	16	0.25	O=C(C[n+]1cccc(C(F)(F)F)c1)N1CC[C@@H]2[C@H]1C(=O)N2S(=O)(=O)[O-] [Compound 120, (1S,5R)-7-oxo-2-{2-[3-(trifluoromethyl)pyridinium]acetyl}-2,6-diazabicyclo[3.2.0]heptane-6-sulfonate, inner salt]	
							0.25	4	>32	4	0.25	>32	4	NC(=O)c1cccc(NC(=O)N2CC[C@@H]3[C@H]2C(=O)N3S(=O)(=O)[O-])c1.[Na+] [Compound 305]	
							0.25	4	>32	32	0.125	32	0.125	NC(=S)c1cc[n+](CC(=O)N2CC[C@@H]3[C@H]2C(=O)N3S(=O)(=O)[O-])cc1 [Compound 118, (1S,5R)-2-{2-[4-(aminothioxomethyl)pyridinium]acetyl}-7-oxo-2,6-diazabicyclo[3.2.0]heptane-6-sulfonate, inner salt]	
							0.5	4	>32	32	0.25	>32	2	O=C(Nc1ccc(O)c(O)c1)N1CC[C@@H]2[C@H]1C(=O)N2S(=O)(=O)[O-].[Na+] [Compound 306, Sodium(1S,5R)-2-[N-(3,4-dihydroxyphenyl)carbamoyl]-7-oxo-2,6-diazabicyclo[3.2.0]heptane-6-sulfonate]	
							0.25	4	>32	>32	0.125	32	0.25	O=C(C[n+]1ccc2c(c1)CCCC2)N1CC[C@@H]2[C@H]1C(=O)N2S(=O)(=O)[O-] [Compound 106, (1S,5R)-7-oxo-2-(2-(2-5,6,7,8-tetrahydroisoquinolinium)acetyl)-2,6-diazabicyclo[3.2.0]heptane-6-sulfonate, inner salt]	
							0.25	4	>32	32	0.125	16	0.125	COC(=O)c1cc(C)c[n+](CC(=O)N2CC[C@@H]3[C@H]2C(=O)N3S(=O)(=O)[O-])c1 [Compound 114, (1S,5R)-2-{2-[3-(methoxycarbonyl)-5-methylpyridinium]acetyl}-7-oxo-2,6-diazabicyclo[3.2.0]heptane-6-sulfonate, inner salt]	
